Laboratory results as given in a compilation of properties of binary mixtures (doi:10.1016/j.molliq.2021.116359).

Test: xn = mol fraction of the nth substance listed
Conditions: 101.3 kPa, x1 = 0.2

CCCC[N+](CCCC)(CCCC)CCCC.O=S(=O)([O-])O + CCCCCCCCCO
Conditions | electrical conductivity [S/m] | speed of sound [m/s] | viscosity [mPa·s]
298.15 K | 0.0037 | 1411.5 | 137.2
303.15 K | 0.005 | 1395 | 107.9
318.15 K | 0.0102 | 1346.7 | 51.9
323.15 K | 0.0123 | 1331.1 | 41.9
328.15 K | 0.0146 | 1315.7 | 33.79
333.15 K | 0.018 | 1300.3 | 27.74
